3 molecules from patent publication US20230042936A1, “PYRIDO[2,3-d]PYRIMIDIN-7(8H)-ONES AS CDK INHIBITORS” (PROSENESTAR LLC, priority 2020, published 2023) can be followed below.

One data set has as its target PCTAIRE1/CycY (Homo sapiens, UniProt Q00536). The experiment in a line: Kinase profiling. The data set is classed as biochemical. The settings on record: 10 semi-logarithmic dilutions from 50 μM, singlicate.
Data set [1] relates to SW1783 glioblastoma cell line (pRB mutant). The experiment in a line: Proliferation assay: determination of GI50. The data set is classed as cell-based. The settings on record: Homo sapiens, Table 4, n = 4, read-out: Growth inhibition GI50, Glioblastoma pRB Mutant SW1783. The protocol:
(§1) The following human tumor cell lines, all Retinoblastoma (Rb)-proficient, were used in this study: MDA-MB231 (breast cancer), MDA-MB453 (breast cancer), U87MG (glioblastoma) and H460 (lung cancer). MDA-MB468 (breast cancer) and SW1783 (glioblastoma) Rb-deficient cells were also included in the study, as well as the MCF10A non-transformed mammary epithelial cell line. Tumor cell lines were maintained in DMEM or RPMI-1640 medium, depending on the cell line, supplemented with 10% FBS. MCF10A cells were grown in complete mammary epithelial growth medium (MEGM, Lonza). Cell lines were authenticated by short tandem repeat (STR) loci profiling with the GenePrint® 10 System (Promega).
(§2) All human cancer cell lines (Table 2) were obtained from the American Type Culture Collection, and were maintained in DMEM (Hyclone) or RPMI-1640 medium (Sigma) supplemented with 10% fetal bovine serum (Sigma). Non-transformed MCF10 cell line was maintained in MEGM Mammary Epithelial Cell Growth Medium (Lonza). Immortalized mouse embryonic fibroblasts (MEFs) were maintained in DMEM with 10% fetal bovine serum.
(§3) 48 h later cells were fixed with PFA 4% for 15 minutes, stained with 10 μg/ml Hoechst 33342 (Molecular Probes, Thermo Fisher) for 30 minutes and washed twice with PBS. Cells were imaged in a high content screening system (Opera Phoenix™, Perkin Elmer) using a 20× dry objective (30 fields/well). Cell counts were determined by the Opera software (Perkin Elmer) and data were further processed with SPSS software. GI50 was calculated by estimating the absolute IC50 using dose-response inhibition tool in Prism6 (Graphpad Software Inc.).

Data set [2] relates to MDA-MB-468 breast carcinoma cell line (pRB mutant). The experiment in a line: Proliferation assay: determination of GI50. The data set is classed as cell-based. Conditions: Homo sapiens, Table 4, n = 2, read-out: Growth inhibition GI50, Breast cancer pRB Mutant MDA-MB-468. How it is done:
as §1, §2, §3

The target in the next data set is CDK5/p25NCK (Homo sapiens, UniProt Q00535). Put plainly: Kinase profiling. The data set is classed as biochemical. Conditions: 10 semi-logarithmic dilutions from 50 μM, singlicate.
The next data set addresses CDK9/CycT1 (Homo sapiens, UniProt P50750). Put plainly: Kinase profiling. Type of data set: biochemical. Conditions: 10 semi-logarithmic dilutions from 50 μM, singlicate.
The next data set concerns the target T1, DYRK2 (Homo sapiens, UniProt Q92630).
T1 sequence (Q92630 1-601): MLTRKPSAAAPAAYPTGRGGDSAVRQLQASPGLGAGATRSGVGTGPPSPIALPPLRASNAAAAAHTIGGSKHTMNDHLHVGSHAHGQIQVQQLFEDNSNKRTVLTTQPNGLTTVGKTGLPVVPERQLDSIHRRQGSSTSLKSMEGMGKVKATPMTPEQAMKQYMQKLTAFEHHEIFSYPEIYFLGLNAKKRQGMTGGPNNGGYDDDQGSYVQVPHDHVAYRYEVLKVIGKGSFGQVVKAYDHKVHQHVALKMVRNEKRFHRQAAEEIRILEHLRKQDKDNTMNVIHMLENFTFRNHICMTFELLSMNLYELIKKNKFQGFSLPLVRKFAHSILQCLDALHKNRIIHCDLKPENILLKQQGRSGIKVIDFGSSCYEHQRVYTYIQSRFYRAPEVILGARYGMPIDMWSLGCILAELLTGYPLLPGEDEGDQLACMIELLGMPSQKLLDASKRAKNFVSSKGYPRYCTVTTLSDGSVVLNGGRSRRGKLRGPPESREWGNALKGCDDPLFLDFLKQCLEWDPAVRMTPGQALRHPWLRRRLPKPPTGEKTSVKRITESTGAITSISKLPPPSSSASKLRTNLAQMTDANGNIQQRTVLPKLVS
Put plainly: Kinase profiling. The data set is classed as biochemical. The settings on record: 10 semi-logarithmic dilutions from 50 μM, singlicate; read-out: IC50 DYRK2.

A further data set addresses CDK1/CycE1 (Homo sapiens, UniProt P06493). Put plainly: Kinase profiling. Type of data set: biochemical. Conditions: 10 semi-logarithmic dilutions from 50 μM, singlicate.
A short description of data set [3]: Summary of solubility, metabolic stability and permeability.
Another data set concerns the target CDK5/p35NCK (Homo sapiens, UniProt Q00535). Put plainly: Kinase profiling. The data set is classed as biochemical. The settings on record: 10 semi-logarithmic dilutions from 50 μM, singlicate.
The nature of data set [4]: Metabolic stability in hepatocytes. The data set is classed as in vitro ADME. Conditions: mouse, 60-90 min test; for hepatocyte CLint: read-out: Metabolic stability, Mouse heptocytes: Clearance; for half-life: read-out: Metabolic stability, Mouse heptocytes: t1/2.
In a further data set the target is DYRK1A (Homo sapiens, UniProt Q13627). Put plainly: Kinase profiling. Type of data set: biochemical. Conditions: 10 semi-logarithmic dilutions from 50 μM, singlicate.
The nature of data set [5]: Metabolic stability in microsomes. The data set is classed as in vitro ADME. Conditions: mouse, 60-90 min test; for microsomal CLint: read-out: Metabolic stability, Mouse microsomes: Clearance; for half-life: read-out: Metabolic stability, Mouse microsomes: t1/2.
For a further data set, the target named is CDK12wt/CycK (Homo sapiens, UniProt Q9NYV4). Put plainly: Kinase profiling. Type of data set: biochemical. Conditions: 10 semi-logarithmic dilutions from 50 μM, singlicate.
The next data set concerns the target HIPK2 (Homo sapiens, UniProt Q9H2X6). The experiment in a line: Kinase profiling. Type of data set: biochemical. Conditions: 10 semi-logarithmic dilutions from 50 μM, singlicate; read-out: IC50 HIPK2.
The test system of data set [6] is MDA-MB-231-derived xenografts. Put plainly: Tumor xenografts. Type of data set: in vivo, Athymic nude mice. The settings on record: 100 mg/Kg intraperitoneally twice per week, two weeks; for phospho-RB levels in the xenografts: FIG. 9A; for tumor weight / tumor growth: vs DMSO; for tumor weight: FIG. 8A; for tumor growth: FIG. 8B. How it is done: For histological analysis, mice tissues and human xenografts were fixed in 10%-buffered formalin (Sigma) and embedded in paraffin wax. Sections of 3- or 5-μm thickness were stained with haematoxylin and eosin. Additional immunohistochemical examination was performed using a specific antibody against phospho-Rb (Ser807/811; Cell Signaling) or Ki67 (DAKO).
DMSO, PS004, PS006 and PS009 were diluted in sesame oil and administered intraperitoneally twice per week during two weeks at 100 mg/Kg. […] Tumor growth was monitored using caliper measurements and tumor size was estimated using the following formula: Tumor volume (mm^3)=d^2·D/2 where d and D, are the shortest and longest diameter in mm, respectively. After completing the treatment, mice were sacrificed and tumors were extracted, weighed, and fixed for histological analysis.
The therapeutic effect of the subject compounds was then tested by treating mice previously injected subcutaneously with MDA-MB-231 breast cancer cells. […] The dose amount of 100 mg/kg dosage in these cases was administered at a frequency of two injections per week for the total of two weeks of treatment.

“Also recorded” adds a separate entry of the source.

Sequence of CDK1/CycE1 (P06493 whole entry): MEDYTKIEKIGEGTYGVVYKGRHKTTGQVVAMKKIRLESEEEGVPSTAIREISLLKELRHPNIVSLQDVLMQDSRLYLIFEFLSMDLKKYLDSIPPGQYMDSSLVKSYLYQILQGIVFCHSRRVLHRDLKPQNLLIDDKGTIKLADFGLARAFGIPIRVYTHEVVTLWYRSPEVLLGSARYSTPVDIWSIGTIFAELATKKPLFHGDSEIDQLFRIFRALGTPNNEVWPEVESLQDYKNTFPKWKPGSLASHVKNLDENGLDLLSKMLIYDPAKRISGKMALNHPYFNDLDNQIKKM
Sequence of CDK1/CycE1 (P24864 whole entry partner): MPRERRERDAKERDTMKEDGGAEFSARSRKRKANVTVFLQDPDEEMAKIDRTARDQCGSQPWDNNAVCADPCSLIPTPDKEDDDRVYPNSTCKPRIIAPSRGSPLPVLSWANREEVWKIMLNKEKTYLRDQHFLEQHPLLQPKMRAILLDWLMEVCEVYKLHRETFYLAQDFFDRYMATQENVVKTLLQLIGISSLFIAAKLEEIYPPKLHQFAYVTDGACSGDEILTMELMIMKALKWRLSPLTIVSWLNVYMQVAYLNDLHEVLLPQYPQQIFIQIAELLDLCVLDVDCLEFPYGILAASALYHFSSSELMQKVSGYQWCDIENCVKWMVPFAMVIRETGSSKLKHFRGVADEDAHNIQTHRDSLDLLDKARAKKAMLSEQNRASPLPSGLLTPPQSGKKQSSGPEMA
Sequence of HIPK2 (Q9H2X6 whole entry): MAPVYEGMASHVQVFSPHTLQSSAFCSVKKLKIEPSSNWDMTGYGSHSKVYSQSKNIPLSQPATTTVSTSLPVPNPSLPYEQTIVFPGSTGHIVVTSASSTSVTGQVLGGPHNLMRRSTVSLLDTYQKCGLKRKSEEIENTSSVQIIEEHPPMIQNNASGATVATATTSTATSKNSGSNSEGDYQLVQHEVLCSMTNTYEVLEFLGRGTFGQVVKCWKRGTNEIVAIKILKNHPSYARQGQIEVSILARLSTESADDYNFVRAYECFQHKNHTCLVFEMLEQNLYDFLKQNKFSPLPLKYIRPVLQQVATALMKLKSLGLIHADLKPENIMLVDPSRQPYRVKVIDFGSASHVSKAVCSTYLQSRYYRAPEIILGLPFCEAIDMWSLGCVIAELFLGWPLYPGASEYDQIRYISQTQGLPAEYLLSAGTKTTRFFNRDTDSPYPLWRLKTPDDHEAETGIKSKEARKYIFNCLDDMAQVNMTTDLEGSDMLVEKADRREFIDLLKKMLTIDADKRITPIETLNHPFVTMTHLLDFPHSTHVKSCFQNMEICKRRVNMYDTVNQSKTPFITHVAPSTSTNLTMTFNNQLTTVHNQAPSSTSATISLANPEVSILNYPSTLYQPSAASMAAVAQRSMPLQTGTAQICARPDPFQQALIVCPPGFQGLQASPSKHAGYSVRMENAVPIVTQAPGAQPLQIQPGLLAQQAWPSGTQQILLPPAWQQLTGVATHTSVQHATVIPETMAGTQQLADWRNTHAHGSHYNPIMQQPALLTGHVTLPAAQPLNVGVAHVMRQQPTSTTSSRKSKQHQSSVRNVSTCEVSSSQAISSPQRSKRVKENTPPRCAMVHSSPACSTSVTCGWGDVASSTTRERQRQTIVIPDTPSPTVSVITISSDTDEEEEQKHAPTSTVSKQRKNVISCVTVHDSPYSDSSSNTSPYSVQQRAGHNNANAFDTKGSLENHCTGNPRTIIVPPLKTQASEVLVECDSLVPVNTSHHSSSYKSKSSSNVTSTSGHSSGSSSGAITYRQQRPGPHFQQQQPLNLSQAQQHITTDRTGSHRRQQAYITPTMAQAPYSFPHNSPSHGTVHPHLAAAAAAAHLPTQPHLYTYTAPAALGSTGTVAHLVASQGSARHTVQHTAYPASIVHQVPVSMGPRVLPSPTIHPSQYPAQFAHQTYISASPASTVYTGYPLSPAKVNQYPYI
Sequence of CDK9/CycT1 (P50750 whole entry): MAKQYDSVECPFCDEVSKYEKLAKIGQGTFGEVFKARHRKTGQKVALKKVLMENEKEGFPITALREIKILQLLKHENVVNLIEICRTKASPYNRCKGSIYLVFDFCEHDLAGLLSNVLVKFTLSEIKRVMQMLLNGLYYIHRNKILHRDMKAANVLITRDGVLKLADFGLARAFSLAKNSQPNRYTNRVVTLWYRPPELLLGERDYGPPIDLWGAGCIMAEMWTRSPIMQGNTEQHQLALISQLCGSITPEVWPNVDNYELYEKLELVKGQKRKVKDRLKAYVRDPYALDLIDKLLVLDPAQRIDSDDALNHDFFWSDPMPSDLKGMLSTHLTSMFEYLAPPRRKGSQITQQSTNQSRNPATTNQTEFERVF
Sequence of CDK9/CycT1 (O60563 whole entry partner): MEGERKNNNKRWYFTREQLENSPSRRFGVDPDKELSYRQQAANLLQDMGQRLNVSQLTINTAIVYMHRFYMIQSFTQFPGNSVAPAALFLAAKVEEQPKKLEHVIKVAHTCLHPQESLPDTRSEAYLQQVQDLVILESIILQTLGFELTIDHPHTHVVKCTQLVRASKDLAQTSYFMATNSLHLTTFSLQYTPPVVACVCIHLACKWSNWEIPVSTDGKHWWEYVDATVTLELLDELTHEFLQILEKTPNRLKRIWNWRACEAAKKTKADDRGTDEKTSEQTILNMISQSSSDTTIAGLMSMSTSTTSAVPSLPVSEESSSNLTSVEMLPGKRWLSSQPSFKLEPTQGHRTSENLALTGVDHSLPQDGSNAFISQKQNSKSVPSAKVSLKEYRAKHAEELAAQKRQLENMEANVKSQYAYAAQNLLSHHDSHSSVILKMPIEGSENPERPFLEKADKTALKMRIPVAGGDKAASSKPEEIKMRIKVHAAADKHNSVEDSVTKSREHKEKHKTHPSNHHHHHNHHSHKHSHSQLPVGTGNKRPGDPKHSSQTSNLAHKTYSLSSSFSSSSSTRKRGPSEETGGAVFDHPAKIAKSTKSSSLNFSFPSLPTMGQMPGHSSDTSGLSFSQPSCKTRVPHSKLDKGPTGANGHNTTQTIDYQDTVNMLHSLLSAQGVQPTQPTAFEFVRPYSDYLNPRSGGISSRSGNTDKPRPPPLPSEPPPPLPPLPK
Sequence of PCTAIRE1/CycY (Q00536 whole entry, species assumed): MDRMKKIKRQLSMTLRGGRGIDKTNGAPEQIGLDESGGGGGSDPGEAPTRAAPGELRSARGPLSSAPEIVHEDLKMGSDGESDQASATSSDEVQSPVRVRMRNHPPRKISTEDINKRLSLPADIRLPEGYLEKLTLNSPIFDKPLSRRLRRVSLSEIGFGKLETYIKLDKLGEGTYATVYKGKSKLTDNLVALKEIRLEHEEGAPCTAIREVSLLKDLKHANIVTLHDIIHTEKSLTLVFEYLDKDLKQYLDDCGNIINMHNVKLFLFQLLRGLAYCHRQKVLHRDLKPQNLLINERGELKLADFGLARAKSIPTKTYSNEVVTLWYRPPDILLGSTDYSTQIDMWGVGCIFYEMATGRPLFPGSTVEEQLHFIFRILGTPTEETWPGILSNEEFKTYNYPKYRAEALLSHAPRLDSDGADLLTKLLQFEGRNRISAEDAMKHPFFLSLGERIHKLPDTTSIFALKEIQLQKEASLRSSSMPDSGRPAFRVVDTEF
Sequence of PCTAIRE1/CycY (Q8ND76 whole entry partner, species assumed): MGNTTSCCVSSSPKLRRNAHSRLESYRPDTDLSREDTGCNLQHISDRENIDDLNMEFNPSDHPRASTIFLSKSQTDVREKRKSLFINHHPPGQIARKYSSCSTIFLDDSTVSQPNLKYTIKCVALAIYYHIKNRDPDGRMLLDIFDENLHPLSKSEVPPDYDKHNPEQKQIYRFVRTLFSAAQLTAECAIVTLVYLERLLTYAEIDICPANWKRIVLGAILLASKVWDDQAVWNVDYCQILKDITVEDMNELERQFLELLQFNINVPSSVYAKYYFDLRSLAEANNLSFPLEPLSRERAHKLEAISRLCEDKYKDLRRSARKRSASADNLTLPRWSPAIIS
Sequence of CDK5/p35NCK (Q00535 whole entry): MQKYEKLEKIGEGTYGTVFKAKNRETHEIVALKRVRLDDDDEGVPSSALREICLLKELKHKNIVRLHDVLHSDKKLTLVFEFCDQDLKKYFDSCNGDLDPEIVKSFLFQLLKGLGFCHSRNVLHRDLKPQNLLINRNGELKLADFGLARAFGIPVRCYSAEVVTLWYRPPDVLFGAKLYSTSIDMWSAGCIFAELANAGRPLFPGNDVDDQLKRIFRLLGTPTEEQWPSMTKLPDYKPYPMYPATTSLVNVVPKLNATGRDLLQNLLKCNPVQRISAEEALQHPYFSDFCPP
Sequence of CDK5/p35NCK (Q15078 whole entry partner): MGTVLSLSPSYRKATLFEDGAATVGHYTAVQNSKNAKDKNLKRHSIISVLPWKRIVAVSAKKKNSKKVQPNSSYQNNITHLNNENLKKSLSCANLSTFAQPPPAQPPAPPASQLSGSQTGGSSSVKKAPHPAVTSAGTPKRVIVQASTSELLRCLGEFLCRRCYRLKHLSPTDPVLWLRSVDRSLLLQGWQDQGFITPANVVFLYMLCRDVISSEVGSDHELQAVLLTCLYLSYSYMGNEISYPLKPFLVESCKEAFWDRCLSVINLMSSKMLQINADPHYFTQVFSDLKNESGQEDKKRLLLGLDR
Sequence of CDK5/p25NCK (Q00535 whole entry): as the sequence (Q00535 whole entry) above
Sequence of CDK5/p25NCK (Q15078 99-307 partner limits assumed): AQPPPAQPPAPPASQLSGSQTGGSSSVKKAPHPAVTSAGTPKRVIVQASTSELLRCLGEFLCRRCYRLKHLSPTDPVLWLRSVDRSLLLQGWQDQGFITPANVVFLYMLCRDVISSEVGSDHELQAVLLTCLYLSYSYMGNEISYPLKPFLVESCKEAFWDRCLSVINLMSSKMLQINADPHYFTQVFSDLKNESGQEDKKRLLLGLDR

Turning to `CC(O)COC1CCN(c2ccc(Nc3ncc4ccc(=O)n([C@@H]5CC6CCC5C6)c4n3)cc2)CC1` (stereo partly drawn) [PS006, 8-((2R)-bicyclo[2.2.1]heptan-2-yl)-2-((4-(4-(2-hydroxypropoxy)piperidin-1-yl)phenyl)amino)pyrido[2,3-d]pyrimidin-7(8H)-one], the IC50 – broadly, the point on the concentration scale where inhibition reaches its midpoint – against PCTAIRE1/CycY is 3.84 µM; against CDK5/p25NCK, 1.46 µM; against CDK9/CycT1 it was 0.264 µM; at DYRK2, > 50 µM; on CDK1/CycE1, 1.21 µM; against CDK5/p35NCK, 0.771 µM. The results for the IC50 at DYRK1A, against CDK12wt/CycK and at HIPK2 were 46.8 µM, 1.01 µM and 14.7 µM, respectively. The results for the GI50 in data set [1] and in [2] were 2.2 µM and 2.5 µM, respectively. In addition, the “Summary: efflux” value in data set [3] is listed as “permeable/No”. The “Summary: permeability” value in data set [3] was “High”. Moreover, the “Summary: solubility” value in data set [3] is given as “insoluble; also recorded: Insoluble,”. Further, in data set [3], the “Summary: stability” value is on record as “highly unstable”. For the same molecule, the hepatocyte CLint in [4] came out at 75.7 µL/min/1e6 cells. For the same molecule, the half-life in [4] is 18.3 min; in data set [5] it was 7.5 min. Besides, the microsomal CLint in data set [5] turned out to be 185 µL/min/mg. Further, the “phospho-RB levels in the xenografts” value in [6] was “significantly reduced”. The tumor weight result in data set [6] is listed as “did not exert any antitumoral effect”. The tumor growth result in [6] is listed as “did not exert any antitumoral effect”.
Consider `CC(O)CCC1CCN(c2ccc(Nc3ncc4ccc(=O)n([C@@H]5CC6CCC5C6)c4n3)cc2)CC1` (stereo partly drawn) [PS004, 8-((2R)-bicyclo[2.2.1]heptan-2-yl)-2-((4-(4-(3-hydroxybutyl)piperidin-1-yl)phenyl)amino)pyrido[2,3-d]pyrimidin-7(8H)-one], for which the IC50 amounted to 13.5 µM against PCTAIRE1/CycY; 4.41 µM against CDK5/p25NCK; 0.264 µM on CDK9/CycT1; 40.5 µM at DYRK2; 3.32 µM on CDK1/CycE1; 1.67 µM against CDK5/p35NCK. For the same molecule, the IC50 is > 50 µM against DYRK1A, 0.923 µM against CDK12wt/CycK and > 50 µM on HIPK2. The GI50 – broadly, the concentration giving 50% growth inhibition – in [1] was 11.5 µM; in [2], 3 µM. Moreover, in data set [3], the “Summary: permeability” value is on record as “Low”. The “Summary: solubility” value in data set [3] was “Insoluble,”. Further, the “Summary: stability” value in data set [3] was “Stable”. For the same molecule, in [4], the hepatocyte CLint is 9.7 µL/min/1e6 cells. Also, the results for the half-life in [4] and in data set [5] were 143 min and 25.4 min, respectively. In data set [5], the microsomal CLint was determined as 54.5 µL/min/mg. Also, the “phospho-RB levels in the xenografts” value in data set [6] was “reduction of phospho-Rb phosphorylation which however did not reach statistical significance”. Also, the “Ki67 levels in the xenografts” value in data set [6] (FIG. 9B) is given as “slightly diminished”. Further, the tumor weight entry in [6] is recorded as “significantly reduced”. In addition, the tumor growth result in data set [6] is listed as “significantly reduced”.
Take `CC(=O)c1c(C)c2cnc(Nc3ccc(N4CCC(CCCO)CC4)cc3)nc2n(C2CCCC2)c1=O` [PS009, 6-acetyl-8-cyclopentyl-2-((4-(4-(3-hydroxypropyl)piperidin-1-yl)phenyl)amino)-5-methylpyrido[2,3-d]pyrimidin-7(8H)-one]: the IC50 at PCTAIRE1/CycY is > 50 µM; at CDK5/p25NCK it was 4.85 µM; against CDK9/CycT1, 0.193 µM; on DYRK2, > 50 µM; against CDK1/CycE1, 19.7 µM; against CDK5/p35NCK, 1.86 µM. Further, the IC50 against DYRK1A is > 50 µM; against CDK12wt/CycK, 17.4 µM; on HIPK2, > 50 µM. Moreover, the GI50 in [1] was found to be 8 µM; in data set [2] it was 3.9 µM. In addition, in data set [3], the “Summary: permeability” value is reported as “Low”. Besides, the “Summary: solubility” value in data set [3] was “insoluble; also recorded: Insoluble,”. The hepatocyte CLint in [4] stood at 67.8 µL/min/1e6 cells. The half-life in data set [4] is 20.4 min; in [5], 29.5 min. Moreover, the microsomal CLint in data set [5] is 46.9 µL/min/mg. Moreover, the “phospho-RB levels in the xenografts” value in data set [6] is on record as “reduction of phospho-Rb phosphorylation which however did not reach statistical significance”. The tumor weight entry in data set [6] is recorded as “did not exert any antitumoral effect”. Further, the tumor growth result in data set [6] was “did not exert any antitumoral effect”.
